How the values were obtained:
[1] = test system: COLO-205 cells; test: MTT cytotoxicity assay, COLO-205; type: cell-based, human; conditions: Homo sapiens, COLO 205, 48 h, 46 h + 2 h incubation
Method: The first stage of the study used the MTT viability test to determine the cytotoxicity of ten compounds, i.e., 3-arylidenechromanone, 3-arylideneflavanone, spirochromanone and spiro- flavanone analogues, against four human cancer cell lines: HL-60, NALM-6, WM-115 and COLO-205.
Cytotoxicity was tested against human skin melanoma cells (WM-115, ECACC, Salisbury, UK), two human leukemia cell lines, viz. promyelocytic leukemia (HL-60) and lymphoblastic leukemia (NALM-6), and human colon adenocarcinoma cells (COLO-205). The cell lines COLO-205, WM-115 and HL-60 used in this work came from the ATCC American Type Culture Collection (Manassas, VA, USA), whereas the NALM-6 cell line was purchased from the German Collection of Microorganisms and Cell Cultures (Braunschweig, Germany). The leukaemia cells and colon adenocarcinoma were cultured in RPMI 1640 medium (Invitrogen, Grand Island, NY, USA) supplemented with 10% fetal bovine serum (FBS; Invitrogen) and gentamicin (25 µg/mL; KRKA, Novo Mesto, Slovenia). For melanoma WM-115 cells, Dulbecco’s minimal essential medium (DMEM; Invitrogen) was used. All cell lines were cultured at 37 °C in a humidified atmosphere of 5% CO2 in air.
For all experiments, the studied compounds were dissolved in DMSO (Sigma-Aldrich) and were further diluted in culture medium to obtain <0.1% DMSO concentration. In each experiment, controls with and without 0.1% DMSO were performed. The cytotoxicity of all compounds and of the reference compounds 4-chromanone and 3-benzylideneflavanone was determined by the MTT assay, i.e., 3-(4,5-dimethylthiazol-2-yl)-2,5-diphenyltetrazolium bromide (Sigma, St. Louis, MO, USA), which measures cellular dehydrogenase activity. Exponentially growing cells were seeded a day before the experiment onto a 96-well microplates (Nunc, Roskilde, Denmark) at a density up to 6–8 × 10^3 cells/well (depending on the cell line). Subsequently, various concentrations of the studied compounds freshly prepared in DMSO and diluted with complete culture medium were added. All compounds were tested for their cytotoxicity at a final concentration of 10^−7–10^−3 M. After 46 h of incubation with the studied compounds, the cells were treated with the MTT reagent and incubation was continued for another two hours. MTT – formazan crystals were dissolved in 20% sodium dodecyl sulphate (SDS, Sigma-Aldrich) and 50% DMF (Sigma-Aldrich) at pH 4.7; following this, absorbance was read at 570 nm on a multifunctional Victor ELISA-plate reader (Perkin Elmer, Turku, Finland). The IC50 values, i.e., the concentration of the test compound required to reduce the cell survival fraction to 50% of controls, were calculated from concentration-response curves and used as a measure of the sensitivity of the cells to a given treatment. As a control, cultured cells were grown in the absence of drugs. The data points represent the means of at least five to ten repeats ± standard deviation (S.D.).

[2] = test system: erythrocytes; test: Red blood cell morphology (phase-contrast microscopy); type: cell-based; conditions: 2% erythrocyte suspension, 37 °C, 1 h, phase contrast 400×
Method: Studies on erythrocyte morphology complement the erythrotoxicity studies because they provide information on potential immediate interactions of the tested compounds with the erythrocyte lipid bilayer, and the possibility of creating pathological forms of erythrocytes, which are not able to carry oxygen. The effects of the synthesized compounds, and the two reference compounds chromanone and flavanone, on the morphology of erythrocytes is shown in Figure 6. Briefly, 2% RBC suspension was incubated with 0.9% NaCl (control samples) or tested compounds at various concentrations corresponding to their activity towards cancer cell lines.
A 2% erythrocyte suspension was incubated at 37 °C for one hour with various concentrations of synthesized compounds. The morphology of the RBCs was examined by means of a phase contrast Opta-Tech inverted microscope, at 400× magnification, equipped with software (OptaView 7) for image analysis.

[3] = test system: red blood cells (RBC membrane integrity); test: Red blood cell lysis assay; type: cell-based; conditions: 2% RBC suspension, 37 °C, 1 h
From the text: All synthesized compounds with potential biological activity have to be tested for blood compatibility since xenobiotics will react with blood cells upon administration. In this case, biocompatibility refers to the quantification of cellular and plasma components of the blood. The measurement of the integrity of RBC membrane is considered a simple and reliable method for estimating hemocompatibility.
The studies on biological material were approved by the Bioethics Committee of the Medical University of Lodz, Poland (RNN/109/16/KE). The blood samples were obtained from healthy donors at the Blood Donation Centre in Lodz. The procedure for plasma preparation for erythrotoxicity studies was described previously. The influence of synthesized compounds as well as two reference compounds flavanone and chromanone on RBC membrane integrity was performed by lysis assay which was conducted according to our previous protocol. Briefly, 2% RBC suspension in 0.9% NaCl was incubated at 37 °C for one hour with the tested compounds at various concentrations corresponding to their activity towards cancer cell lines or 0.9% NaCl (control). The samples were centrifuged at 3000 rpm for 10 min and the absorbance of the supernatant was measured at 550 nm. The results are presented as percentage of haemolysis where a sample containing 10 μL of 2.0% v/v Triton X-100 was regarded as a positive control contributing to 100% of haemolysis. A sample containing saline solution represented spontaneous haemolysis of RBCs (control). The studies were performed on four biological samples obtained from different blood donors (n = 4). The results are presented as mean ± standard deviation (SD). The coefficient of variability for the method was counted: W = 9.51%, n = 5.

Compound: O=C1/C(=C/c2ccccc2)COc2ccccc21 [Compound 7, (E)-3-benzylidene-chroman-4-one]
- IC50 [1]: 31 ± 1.4 µM
- erythrocyte morphology (in words) [2]: primarily led to echinocytosis, however single anisocytes could also be detected
- effect on RBC hemolysis / erythrocyte membrane integrity (in words) [3]: no significant effects on RBC hemolysis were observed up to 35 µM

From publication PMC7180617, “Biological Evaluation of 3-Benzylidenechromanones and Their Spiropyrazolines-Based Analogues” (Molecules, 2020)
